Assay results as given in patent publication EP4610269A1, “UROKINASE PLASMINOGEN ACTIVATOR SURFACE RECEPTOR (UPAR) LIGANDS FOR DIAGNOSTIC OR THERAPEUTIC USE” (3B Pharmaceuticals GmbH, priority 2024, dated 2025).
Read-outs that look alike come from different tables or passages of the source. *1 amine or outer side, *2 acyl side, *3 side chain or, on linkers, in order; H or OH if unused. Where a SMILES comes first, the peptide text is derived from it. Bridges are numbered along the chain shown (N, C = ends). [ ]: non-standard residue; d: D form. The star is where a group is joined. Pro(trans-4-NH2) = O=C([C@@H]1C[C@@H](N[*:3])CN1[*:1])[*:2]; DOTA = O=C(O)CN1CCN(CC(=O)O)CCN(CC(=O)*)CCN(CC(=O)O)CC1; Hyp = O=C(O)[C@@H]1C[C@@H](O)CN1; 3Pal = N[C@@H](Cc1cccnc1)C(=O)O; Pentanoyl(4-Me) = CC(C)CCC(=O)*; Cit = NC(=O)NCCC[C@H](N)C(=O)O; Suc = O=C(CCC(=O)[*:2])[*:1]; Nva = CCC[C@H](N)C(=O)O; Pentanoyl = CCCCC(=O)*; AEEA = NCCOCCOCC(=O)O

Legend:
[1] = biological target: T1, uPAR-expressing HEC-265 human endometrial adenocarcinoma cells (Homo sapiens, UniProt Q03405); experiment: Competitive FACS binding assay; details: pIC50 category of FACS binding
T1 construct: Cell surface uPAR-expressing HEC-265 human endometrial adenocarcinoma cells; host or cells: HEC-265
Method in brief: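 Competitive displacement of a 10 nM biotinylated peptide from HEC-265 cells (1 h, 4 °C, PBS/1% BSA), detected via APC-streptavidin by flow cytometry. pIC50 from four-parameter logistic fit of median fluorescence versus concentration.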

human uPAR (uPAR-Fc) = biological target: T2, human uPAR (uPAR-Fc) (Homo sapiens, UniProt Q03405); experiment: Surface plasmon resonance (SPR) assay, single cycle kinetics; format: binding; details: pKD category for uPAR SPR activity assay, uPAR-Fc on Protein A-Chip, 25°C, read-out: pKD CAT (converted)
T2 construct: comprising amino acids Leu23-Arg303 according to UniProt entry Q03405.1; purchased R&D Systems 10378-UK-100
Method in brief: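 uPAR-Fc (Leu23-Arg303 extracellular domains, human IgG1 Fc) captured on Protein A chip to ~2000 RU; single-cycle kinetics at 25°C in HEPES running buffer pH 7.4 with 0.1% DMSO. KD from double-referenced sensorgrams fitted to 1:1 Langmuir model, reported as pKD.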

T2 sequence (Q03405 23-303): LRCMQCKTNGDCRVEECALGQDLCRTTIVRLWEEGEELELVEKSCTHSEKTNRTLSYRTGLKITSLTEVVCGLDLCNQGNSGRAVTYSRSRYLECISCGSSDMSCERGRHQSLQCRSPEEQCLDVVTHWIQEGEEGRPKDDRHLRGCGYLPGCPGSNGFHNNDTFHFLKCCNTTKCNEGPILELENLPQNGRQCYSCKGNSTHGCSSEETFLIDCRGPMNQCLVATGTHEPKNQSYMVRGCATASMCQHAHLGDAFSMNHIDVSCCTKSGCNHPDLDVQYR
T1 sequence (Q03405 23-335): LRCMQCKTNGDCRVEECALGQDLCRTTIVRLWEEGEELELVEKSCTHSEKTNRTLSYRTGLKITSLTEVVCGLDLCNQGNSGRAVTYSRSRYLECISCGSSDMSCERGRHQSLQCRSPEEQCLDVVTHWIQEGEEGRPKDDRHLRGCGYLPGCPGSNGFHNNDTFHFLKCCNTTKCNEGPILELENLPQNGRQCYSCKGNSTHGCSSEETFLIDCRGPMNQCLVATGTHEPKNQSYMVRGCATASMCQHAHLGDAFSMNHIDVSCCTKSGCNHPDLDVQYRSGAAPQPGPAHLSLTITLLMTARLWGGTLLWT

Structure (SMILES) | IC50 [1] [nM] | Kd (human uPAR (uPAR-Fc); single cycle kinetics) [nM] | Kd (human uPAR (uPAR-Fc)) [nM]
CC[C@H](C)[C@@H]1NC(=O)[C@@H]2C[C@@H](NC(=O)CN3CCN(CC(=O)O)CCN(CC(=O)O)CCN(CC(=O)O)CC3)CN2C(=O)[C@@H]2CCCN2C(=O)[C@H](Cc2ccccc2)NC(=O)[C@H](Cc2ccc(O)cc2)NC(=O)[C@H](CCC(N)=O)NC(=O)[C@H](CCCNC(N)=O)NC(=O)[C@@H](NC(=O)CCC(C)C)CSSC[C@@H](C(N)=O)NC(=O)[C@H](CC(C)C)NC1=O [UPAR-389, iHex-[Cys-Cit-Gln-Tyr-Phe-Pro-Tap(DOTA)-Ile-Leu-Cys]-NH2] ({Pentanoyl(4-Me)}-C[Cit]QYFP[Pro(trans-4-NH2)](DOTA)ILC-NH2; disulfide 1-10) | ≤ 10 | < 1.58 | 
CC[C@H](C)[C@@H]1NC(=O)[C@@H](C)NC(=O)[C@@H]2CCCN2C(=O)[C@H](Cc2ccccc2)NC(=O)[C@H](Cc2ccc(O)cc2)NC(=O)[C@H](CCC(N)=O)NC(=O)[C@H](CCCNC(N)=O)NC(=O)[C@@H](NC(=O)[C@H](CC(C)C)NC(=O)COCCOCCNC(=O)CN2CCN(CC(=O)O)CCN(CC(=O)O)CCN(CC(=O)O)CC2)CSSC[C@@H](C(N)=O)NC(=O)[C@H](CC(C)C)NC1=O [UPAR-245, DOTA-O2Oc-Leu-[Cys-Cit-Gln-Tyr-Phe-Pro-ala-Ile-Leu-Cys]-NH2] ({DOTA-AEEA}-LC[Cit]QYFP[dA]ILC-NH2; disulfide 2-11) | ≤ 10 |  | < 1.58
CC[C@H](C)[C@@H]1NC(=O)[C@@H](C)NC(=O)[C@@H]2CCCN2C(=O)[C@H](Cc2ccccc2)NC(=O)[C@H](Cc2ccc(O)cc2)NC(=O)[C@H](CCCCNC(=O)CN2CCN(CC(=O)O)CCN(CC(=O)O)CCN(CC(=O)O)CC2)NC(=O)[C@H](CCCNC(N)=O)NC(=O)[C@@H](NC(=O)[C@H](CC(C)C)NC(=O)[C@H](CC(=O)O)NC(C)=O)CSSC[C@@H](C(N)=O)NC(=O)[C@H](CC(C)C)NC1=O [UPAR-189, Ac-Asp-Leu-[Cys-Cit-Lys(DOTA)-Tyr-Phe-Pro-ala-Ile-Leu-Cys]-NH2] (Ac-DLC[Cit]K(DOTA)YFP[dA]ILC-NH2; disulfide 3-12) | ≤ 10 |  | < 1.58
CCCCC(=O)N[C@H]1CSSC[C@@H](C(N)=O)NC(=O)[C@H](CCC)NC(=O)[C@H]([C@@H](C)CC)NC(=O)[C@@H]2C[C@@H](O)CN2C(=O)[C@@H]2C[C@@H](O)CN2C(=O)[C@H](Cc2ccccc2)NC(=O)[C@H](Cc2ccc(O)cc2)NC(=O)[C@H](CCCCNC(=O)CN2CCN(CC(=O)O)CCN(CC(=O)O)CCN(CC(=O)O)CC2)NC(=O)[C@H](CCCNC(N)=O)NC1=O [UPAR-403, Pent-[Cys-Cit-Lys(DOTA)-Tyr-Phe-Hyp-Hyp-Ile-Nva-Cys]-NH2] (Pentanoyl-C[Cit]K(DOTA)YF[Hyp][Hyp]I[Nva]C-NH2; disulfide 1-10) | ≤ 10 | < 1.58 | 
CC[C@H](C)[C@@H]1NC(=O)[C@@H]2CCCN2C(=O)[C@@H]2CCCN2C(=O)[C@H](Cc2ccccc2)NC(=O)[C@H](Cc2ccc(O)cc2)NC(=O)[C@H](CCC(N)=O)NC(=O)[C@H](CCCNC(N)=O)NC(=O)[C@@H](NC(=O)[C@H](CC(C)C)NC(=O)COCCOCCNC(=O)CN2CCN(CC(=O)O)CCN(CC(=O)O)CCN(CC(=O)O)CC2)CSSC[C@@H](C(N)=O)NC(=O)[C@H](CC(C)C)NC1=O [UPAR-229, DOTA-O2Oc-Leu-[Cys-Cit-Gln-Tyr-Phe-Pro-Pro-Ile-Leu-Cys]-NHz] ({DOTA-AEEA}-LC[Cit]QYFPPILC-NH2; disulfide 2-11) | ≤ 10 |  | < 1.58
CC[C@H](C)[C@@H]1NC(=O)[C@@H](CCCNC(=N)N)NC(=O)[C@@H]2CCCN2C(=O)[C@H](Cc2ccccc2)NC(=O)[C@H](Cc2ccc(O)cc2)NC(=O)[C@H](CCCCNC(=O)CN2CCN(CC(=O)O)CCN(CC(=O)O)CCN(CC(=O)O)CC2)NC(=O)[C@H](CCCNC(N)=O)NC(=O)[C@@H](NC(=O)[C@H](CC(C)C)NC(=O)[C@H](CC(=O)O)NC(C)=O)CSSC[C@@H](C(N)=O)NC(=O)[C@H](CC(C)C)NC1=O [UPAR-306, Ac-Asp-Leu-[Cys-Cit-Lys(DOTA)-Tyr-Phe-Pro-arg-Ile-Leu-Cys]-NH2] (Ac-DLC[Cit]K(DOTA)YFP[dR]ILC-NH2; disulfide 3-12) | ≤ 10 |  | < 1.58
CC[C@H](C)[C@@H]1NC(=O)[C@@H](C)NC(=O)[C@@H]2CCCN2C(=O)[C@H](Cc2ccccc2)NC(=O)[C@H](Cc2ccc(O)cc2)NC(=O)[C@H](CCC(N)=O)NC(=O)[C@H](CCCNC(N)=O)NC(=O)[C@@H](NC(=O)CCC(C)C)CSSC[C@@H](C(N)=O)NC(=O)[C@H](CC(C)C)NC1=O [UPAR-338, iHex-[Cys-Cit-Gln-Tyr-Phe-Pro-ala-Ile-Leu-Cys]-NH2] ({Pentanoyl(4-Me)}-C[Cit]QYFP[dA]ILC-NH2; disulfide 1-10) | ≤ 10 |  | < 1.58
CC[C@H](C)[C@@H]1NC(=O)[C@@H](C)NC(=O)[C@@H]2CCCN2C(=O)[C@H](Cc2ccccc2)NC(=O)[C@H](Cc2ccc(O)cc2)NC(=O)[C@H](CC(=O)O)NC(=O)[C@H](CCCNC(N)=O)NC(=O)[C@@H](NC(=O)CCC(C)C)CSSC[C@@H](C(N)=O)NC(=O)[C@H](CC(C)C)NC1=O [UPAR-434, iHex-[Cys-Cit-Asp-Tyr-Phe-Pro-ala-Ile-Leu-Cys]-NH2] ({Pentanoyl(4-Me)}-C[Cit]DYFP[dA]ILC-NH2; disulfide 1-10) | ≤ 10 | < 1.58 | 
CCC[C@H](NC(=O)CCC(=O)O)C(=O)N[C@H]1CSSC[C@@H](C(N)=O)NC(=O)[C@H](CCC)NC(=O)[C@H]([C@@H](C)CC)NC(=O)[C@@H]2C[C@@H](O)CN2C(=O)[C@@H]2CCCN2C(=O)[C@H](Cc2ccccc2)NC(=O)[C@H](Cc2ccc(O)cc2)NC(=O)[C@H](CCCCNC(=O)CN2CCN(CC(=O)O)CCN(CC(=O)O)CCN(CC(=O)O)CC2)NC(=O)[C@H](CCCNC(N)=O)NC1=O [UPAR-293, HO-Succinyl-Nva-[Cys-Cit-Lys(DOTA)-Tyr-Phe-Pro-Hyp-Ile-Nva-Cys]-NH2] (Suc-[Nva]C[Cit]K(DOTA)YFP[Hyp]I[Nva]C-NH2; disulfide 2-11) | ≤ 10 |  | < 1.58
CCCCC(=O)N[C@H]1CSSC[C@@H](C(N)=O)NC(=O)[C@H](CCC)NC(=O)[C@H]([C@@H](C)CC)NC(=O)[C@@H]2C[C@@H](O)CN2C(=O)[C@@H]2CCCN2C(=O)[C@H](Cc2ccccc2)NC(=O)[C@H](Cc2cccnc2)NC(=O)[C@H](CCCCNC(=O)CN2CCN(CC(=O)O)CCN(CC(=O)O)CCN(CC(=O)O)CC2)NC(=O)[C@H](CCCNC(N)=O)NC1=O [UPAR-138, Pent-[Cys-Cit-Lys(DOTA)-Mpa-Phe-Pro-Hyp-Ile-Nva-Cys]-NH2] (Pentanoyl-C[Cit]K(DOTA)[3Pal]FP[Hyp]I[Nva]C-NH2; disulfide 1-10) | ≤ 10 |  | < 1.58
CCCCC(=O)N[C@H]1CSSC[C@@H](C(N)=O)NC(=O)[C@H](CCC)NC(=O)[C@H]([C@@H](C)CC)NC(=O)[C@@H]2C[C@@H](O)CN2C(=O)[C@@H]2CCCN2C(=O)[C@H](Cc2ccccc2)NC(=O)[C@H](Cc2ccc(O)cc2)NC(=O)[C@H](CCCCNC(=O)CN2CCN(CC(=O)O)CCN(CC(=O)O)CCN(CC(=O)O)CC2)NC(=O)[C@H](CCCNC(N)=O)NC1=O [UPAR-261, Pent-[Cys-Cit-Lys(DOTA)-Tyr-Phe-Pro-Hyp-Ile-Nva-Cys]-NH2] (Pentanoyl-C[Cit]K(DOTA)YFP[Hyp]I[Nva]C-NH2; disulfide 1-10) | ≤ 10 |  | < 1.58
